Source: US11597724B2, “Herbicidally active 3-phenylisoxazoline-5-carboxamides of tetrahydro and dihydrofuran carboxylic acids and esters” (Bayer Aktiengesellschaft, priority 2017, dated 2023)

How the values were obtained:
Format in all cases: in vivo
Polygonum convolvulus = test: Post-emergence herbicidal activity against POLCO; settings: dosage 320 g/ha, rated about 3 weeks after treatment; for pest or weed control at 320 g/ha: Fallopia convolvulus, 504 h
Description: (§1) POLCO: Polygonum convolvulus SETVI: Setaria viridis 2. Post-Emergence Herbicidal Action and Crop Plant Compatibility Seeds of monocotyledonous and dicotyledonous weeds and crop plants are placed in sandy loam in plastic or wood-fiber pots, covered with soil and cultivated in a greenhouse under controlled growth conditions. 2 to 3 weeks after sowing, the test plants are treated at the one-leaf stage. The compounds of the invention, formulated in the form of wettable powders (WP) or as emulsion concentrates (EC), are then sprayed onto the green parts of the plants as aqueous suspension or emulsion with addition of 0.5% additive at a water application rate of 600 l/ha (converted). After the test plants had been kept in the greenhouse under optimum growth conditions for about 3 weeks, the activity of the preparations is rated visually in comparison to untreated controls. For example, 100% activity=the plants have died, 0% activity=like control plants.

Echinochloa crus-galli = test: Post-emergence herbicidal activity against ECHCG; settings: dosage 320 g/ha, rated about 3 weeks after treatment; for pest or weed control at 320 g/ha: Echinochloa crus-galli, 504 h
Description: as §1, with “ECHCG: Echinochloa crus-galli HORMU: Hordeum murinum” for “POLCO: Polygonum convolvulus SETVI: Setaria viridis”

Avena fatua = test: Post-emergence herbicidal activity against AVEFA; settings: dosage 320 g/ha, rated about 3 weeks after treatment; for pest or weed control at 320 g/ha: Avena fatua, 504 h
Description: as §1, with “AMARE: Amaranthus retroflexus AVEFA: Avena fatua” for “POLCO: Polygonum convolvulus SETVI: Setaria viridis”

Pharbitis purpurea = test: Post-emergence herbicidal activity against PHBPU; settings: dosage 320 g/ha, rated about 3 weeks after treatment; for pest or weed control at 320 g/ha: Ipomoea purpurea, 504 h
Description: as §1, with “LOLRI: Lolium rigidum PHBPU: Pharbitis purpurea” for “POLCO: Polygonum convolvulus SETVI: Setaria viridis”

Veronica persica = test: Post-emergence herbicidal activity against VERPE; settings: dosage 320 g/ha; for pest or weed control at 320 g/ha: Veronica persica, 504 h
Description: as §1, with “STEME: Stellaria media VERPE: Veronica persica” for “POLCO: Polygonum convolvulus SETVI: Setaria viridis”

Setaria viridis = test: Post-emergence herbicidal activity against SETVI; settings: dosage 320 g/ha, rated about 3 weeks after treatment; for pest or weed control at 320 g/ha: Setaria viridis, 504 h
Description: as §1

Viola tricolor = test: Post-emergence herbicidal activity against VIOTR; settings: dosage 320 g/ha, rated about 3 weeks after treatment
Description: as §1, with “VIOTR: Viola tricolor” for “POLCO: Polygonum convolvulus SETVI: Setaria viridis”

Alopecurus myosuroides = test: Post-emergence herbicidal activity against ALOMY; settings: dosage 320 g/ha, rated about 3 weeks after treatment; for pest or weed control at 320 g/ha: Alopecurus myosuroides, 504 h
Description: as §1, with “ABUTH: Abutilon theophrasti ALOMY: Alopecurus myosuroides” for “POLCO: Polygonum convolvulus SETVI: Setaria viridis”

Stellaria media = test: Post-emergence herbicidal activity against STEME; settings: dosage 320 g/ha, rated about 3 weeks after treatment; for pest or weed control at 320 g/ha: Stellaria media, 504 h
Description: as §1, with “STEME: Stellaria media VERPE: Veronica persica” for “POLCO: Polygonum convolvulus SETVI: Setaria viridis”

Abutilon theophrasti = test: Post-emergence herbicidal activity against ABUTH; settings: dosage 320 g/ha, rated about 3 weeks after treatment
Description: as §1, with “ABUTH: Abutilon theophrasti ALOMY: Alopecurus myosuroides” for “POLCO: Polygonum convolvulus SETVI: Setaria viridis”

Hordeum murinum = test: Post-emergence herbicidal activity against HORMU; settings: dosage 320 g/ha
Description: as §1, with “ECHCG: Echinochloa crus-galli HORMU: Hordeum murinum” for “POLCO: Polygonum convolvulus SETVI: Setaria viridis”

Lolium rigidum = test: Post-emergence herbicidal activity against LOLRI; settings: dosage 320 g/ha, rated about 3 weeks after treatment
Description: as §1, with “LOLRI: Lolium rigidum PHBPU: Pharbitis purpurea” for “POLCO: Polygonum convolvulus SETVI: Setaria viridis”

Amaranthus retroflexus = test: Post-emergence herbicidal activity against AMARE; settings: dosage 320 g/ha, rated about 3 weeks after treatment; for pest or weed control at 320 g/ha: Amaranthus retroflexus, 504 h
Description: as §1, with “AMARE: Amaranthus retroflexus AVEFA: Avena fatua” for “POLCO: Polygonum convolvulus SETVI: Setaria viridis”

[1] = Post-emergence treatment, summary over harmful plants; settings: 504 h, application rate of 0.32 kg of active substance or less per hectare, read-out: herbicidal action, post-emergence treatment (very good herbicidal activity)
Description: 2. Post-Emergence Herbicidal Action and Crop Plant Compatibility
as §1, with “Seeds” for “POLCO: Polygonum convolvulus SETVI: Setaria viridis 2. Post-Emergence Herbicidal Action and Crop Plant Compatibility Seeds”
As shown by the results, compounds according to the invention such as, for example, the compounds No. I-35 and other compounds from the tables (for example I-28, I-38, I-01, I-19, I-36, I-29, I-32, I-11, I-12, I-37, I-06, I-09, I-33, I-34, I-13, I-04, I-26, I-21, I-30, I-05, I-03, I-20, I-27, I-14, I-10, I-23, I-07, I-25, I-02, I-08, I-24, I-41, I-42, I-43, I-44, I-46, I-49, I-54, I-55, I-56) have, when used for post-emergence treatment, very good herbicidal activity (80% to 100% herbicidal action) against harmful plants such as Abutilon theophrasti, Alopecurus myosuroides, Amaranthus retroflexus, Avena fatua, Echinochloa crus-galli, Hordeum murinum, Lolium rigidum, Pharbitis purpurea, Polygonum convolvulus, Setaria viridis, Stellaria media, Veronica persica and Viola tricolor at an application rate of 0.32 kg of active substance or less per hectare.

Compound	pest or weed control at 320 g/ha (Polygonum convolvulus)	pest or weed control at 320 g/ha (Echinochloa crus-galli)	pest or weed control at 320 g/ha (Avena fatua)	pest or weed control at 320 g/ha (Pharbitis purpurea)	pest or weed control at 320 g/ha (Veronica persica)	pest or weed control at 320 g/ha (Setaria viridis)	pest or weed control at 320 g/ha (Alopecurus myosuroides)	also measured
C=C[C@@]1(C(=O)N[C@H]2CO[C@@H](C(=O)OC)C2)CC(c2cc(F)cc(F)c2)=NO1 (mixture of isomers) [I-22, methyl cis-4-[[(5R)-3-(3,5-difluorophenyl)-5-vinyl-4H-isoxazole-5-carbonyl]amino]tetrahydrofuran-2-carboxylate]	90%							
C=CC1(C(=O)NC2COC(C(=O)OCc3cccc(F)c3)C2)CC(c2cc(F)cc(F)c2)=NO1 (mixture of isomers) [I-52]								Post-emergence herbicidal activity against ECHCG in % (Echinochloa crus-galli): 90%; Post-emergence herbicidal activity against AVEFA in % (Avena fatua): 90%; Post-emergence herbicidal activity against PHBPU in % (Pharbitis purpurea): 90%; Post-emergence herbicidal activity against VERPE in % (Veronica persica): 90%; Post-emergence herbicidal activity against SETVI in % (Setaria viridis): 90%; Post-emergence herbicidal activity against POLCO in % (Polygonum convolvulus): 90%; Post-emergence herbicidal activity against VIOTR in % (Viola tricolor): 90%; Post-emergence herbicidal activity against ALOMY in % (Alopecurus myosuroides): 90%; Post-emergence herbicidal activity against STEME in % (Stellaria media): 90%; Post-emergence herbicidal activity against ABUTH in % (Abutilon theophrasti): 90%; Post-emergence herbicidal activity against HORMU in % (Hordeum murinum): 90%; Post-emergence herbicidal activity against LOLRI in % (Lolium rigidum): 90%; Post-emergence herbicidal activity against AMARE in % (Amaranthus retroflexus): 90%
COC(=O)[C@H]1C[C@@H](NC(=O)C2(C)CC(c3cccc(F)c3)=NO2)CO1 (relative stereo) [I-13, methyl cis-4-[[3-(3-fluorophenyl)-5-methyl-4H-isoxazole-5-carbonyl]amino]tetrahydrofuran-2-carboxylate]	80%	80%	90%	90%	80%	80%	90%	pest or weed control at 320 g/ha [1]: 80 to 100%
CC1(C(=O)N[C@H]2CO[C@@H](C(=O)O)C2)CC(c2cccc(F)c2)=NO1 (relative stereo) [I-20, cis-4-[[3-(3-fluorophenyl)-5-methyl-4H-isoxazole-5-carbonyl]amino]tetrahydrofuran-2-carboxylic acid]	80%	80%	90%	80%	90%	80%	90%	pest or weed control at 320 g/ha [1]: 80 to 100%; pest or weed control at 320 g/ha (Stellaria media): 80%; pest or weed control at 320 g/ha (Amaranthus retroflexus): 80%
COC(=O)C1(NC(=O)C2(C)CC(c3cc(F)cc(F)c3)=NO2)CCOC1 (stereo not shown) [I-17, methyl 3-[[3-(3,5-difluorophenyl)-5-methyl-4H-isoxazole-5-carbonyl]amino]tetrahydrofuran-3-carboxylate]	90%		80%					
CCOC(=O)C1(NC(=O)C2(C)CC(c3cc(F)cc(F)c3)=NO2)CCOC1 (stereo not shown) [I-18, ethyl 3-[[3-(3,5-difluorophenyl)-5-methyl-4H-isoxazole-5-carbonyl]amino]tetrahydrofuran-3-carboxylate]			100%		80%		80%	
COC(=O)[C@]1(OC)C[C@H](NC(=O)C2(C)CC(c3cccc(F)c3)=NO2)CO1 (stereo partly drawn) [I-40, methyl (2S,4S)-4-[[3-(3-fluorophenyl)-5-methyl-4H-isoxazole-5-carbonyl]amino]-2-methoxytetrahydrofuran-2-carboxylate]	80%	80%		90%	80%	80%	90%	pest or weed control at 320 g/ha (Stellaria media): 80%; pest or weed control at 320 g/ha (Hordeum murinum; Hordeum murinum, 504 h): 90%; pest or weed control at 320 g/ha (Amaranthus retroflexus): 80%
